From patent US8563472B2 (priority 2010, dated 2013)

Legend:
[1] = test system: Leptosphaeria nodorum (LEPTNO); test: In vitro fungitoxicity assay against Leptosphaeria nodorum in copper-minus / copper-plus liquid medium; type: cell-based; conditions: for inhibition of growth at 0.05 µg/mL: Parastagonospora nodorum, copper-minus medium, growth by light scattering, read-out: LEPTNO % Inhn. Minus Copper Observed; for inhibition of growth at 0.05 µg/mL / LEPTNO % Inhn. Plus Copper Observed: test compound 0.05 μg/mL, 25° C., 72 h; for LEPTNO % Inhn. Plus Copper Observed: copper-plus medium (CuCl2.2H2O)
Description: In vitro fungitoxicity assays against Leptosphaeria nodorum (LEPTNO) were conducted using the liquid growth medium described by Coursen and Sisler (American Journal of Botany 1960, 47, 541-549) except that copper micronutrient, normally included as CuSO4, was omitted. The medium, termed “copper-minus”, was prepared by dissolving 10 g glucose, 1.5 g K2HPO4, 2 g KH2PO4 and 1 g (NH4)2SO4 in 1 liter of deionized water and treating the solution with 0.5 g Chelex 100 resin (Bio-Rad Analytical grade, 50-100 mesh, sodium form, cat#142-2822) by stirring at room temperature for 1 h. MgSO4.7H2O (0.5 g) was added, and stirring was continued for a further hour. Trace elements (minus CuSO4), and vitamins described by Coursen and Sisler were added from concentrated stock solutions and the entire medium was sterilized by filtration. Medium containing copper was prepared by adding CuCl2.2H2O to the copper-minus medium at 20 μM. […] Copper-minus medium (100 μL) was added to one of the wells and copper-plus medium to the second well. Control wells, included for each medium, received 1 μL DMSO and 100 μL of medium.
LEPTNO was grown on potato dextrose agar in 9 cm diameter petri dishes for 7 days (d). Sterile deionized water (20 mL) was added to a culture plate and spores suspended by scraping the surface gently with a sterile plastic loop. The resulting suspension was filtered through a double layer of sterile cheesecloth. […] The spores were resuspended in copper-minus medium, and the suspension adjusted to 2×10^5 spores per mL. Microtiter plates were inoculated with 100 μL of this spore suspension and the plates incubated at 25° C. for 72 h before assessing fungal growth by measuring light scattering in a NepheloStar plate reader. Growth inhibition was determined by comparing growth in the presence of test compound with growth in control wells lacking test compound.

Phytophthora infestans = type: in vivo; conditions: hydrazone 50 ppm with 50 μM CuCl2.2H2O, applied 24 h before inoculation, tomato plants, assessed 7 d after inoculation

## Cc1cc(C(=O)N/N=C/c2cc(Cl)cc(Cl)c2O)c2cc(Br)ccc2n1 [Compound 1]
other
  melting point: 265 to 267 °C
[1]
  inhibition of growth at 0.05 µg/mL: 2.5%
  LEPTNO % Inhn. Plus Copper Observed: 73.8%
Phytophthora infestans
  TLB % control: 7%

## C/C(=N\NC(=O)c1cc(C)nc2ccc(Br)cc12)c1ccccc1O [Compound 2]
other
  melting point: 251 to 254 °C
[1]
  inhibition of growth at 0.05 µg/mL: 0%
  LEPTNO % Inhn. Plus Copper Observed: 83.4%
Phytophthora infestans
  TLB % control: 36%

## Cc1cc(C(=O)N/N=C/c2ccccc2O)c2cc(Br)ccc2n1 [Compound 3]
other
  melting point: 270 to 275 °C
[1]
  inhibition of growth at 0.05 µg/mL: 0%
  LEPTNO % Inhn. Plus Copper Observed: 72.9%
Phytophthora infestans
  TLB % control: 25%

## Cc1c(C(=O)N/N=C/c2ccccc2O)[nH]c2c([N+](=O)[O-])cccc12 [Compound 4]
other
  melting point: 296 to 299 °C
[1]
  inhibition of growth at 0.05 µg/mL: 11.3%
  LEPTNO % Inhn. Plus Copper Observed: 91.4%
Phytophthora infestans
  TLB % control: 4%

## O=C(N/N=C/c1cc(Cl)ccc1O)c1cccs1 [Compound 5]
[1]
  inhibition of growth at 0.05 µg/mL: 0%
  LEPTNO % Inhn. Plus Copper Observed: 95.8%
Phytophthora infestans
  TLB % control: 54%

## Cc1occc1C(=O)N/N=C/c1cc(Br)ccc1O [Compound 6]
[1]
  inhibition of growth at 0.05 µg/mL: 2.2%
  LEPTNO % Inhn. Plus Copper Observed: 96.7%
Phytophthora infestans
  TLB % control: 75%

## O=C(N/N=C/c1ccccc1O)c1cccs1 [Compound 7]
[1]
  inhibition of growth at 0.05 µg/mL: 0%
  LEPTNO % Inhn. Plus Copper Observed: 87.3%
Phytophthora infestans
  TLB % control: 38%

## Cc1ccc(C(=O)N/N=C/c2cc(Br)cc(Cl)c2O)cn1 [Compound 8]
[1]
  inhibition of growth at 0.05 µg/mL: 0%
  LEPTNO % Inhn. Plus Copper Observed: 60.9%
Phytophthora infestans
  TLB % control: 0%

## C/C(=N\NC(=O)c1ccoc1C)c1ccccc1O [Compound 9]
[1]
  inhibition of growth at 0.05 µg/mL: 3.9%
  LEPTNO % Inhn. Plus Copper Observed: 97%
Phytophthora infestans
  TLB % control: 60%

## Cc1occc1C(=O)N/N=C/c1cc(Cl)cc(Cl)c1O [Compound 10]
[1]
  inhibition of growth at 0.05 µg/mL: 8.7%
  LEPTNO % Inhn. Plus Copper Observed: 98.1%
Phytophthora infestans
  TLB % control: 67%

## C=CCc1cccc(/C=N/NC(=O)c2ccc(Br)o2)c1O [Compound 11]
[1]
  inhibition of growth at 0.05 µg/mL: 12.9%
  LEPTNO % Inhn. Plus Copper Observed: 95.1%
Phytophthora infestans
  TLB % control: 31%

## O=C(N/N=C/c1cc(Cl)cc(Cl)c1O)c1sc(C(F)(F)F)nc1C(F)(F)F [Compound 12]
other
  melting point: 189 to 190 °C
[1]
  inhibition of growth at 0.05 µg/mL: 49.8%
  LEPTNO % Inhn. Plus Copper Observed: 94.7%
Phytophthora infestans
  TLB % control: 57%

## O=C(N/N=C/c1cc(Cl)cc(Cl)c1O)c1ccco1 [Compound 14]
[1]
  inhibition of growth at 0.05 µg/mL: 0%
  LEPTNO % Inhn. Plus Copper Observed: 56.2%
Phytophthora infestans
  TLB % control: 52%

## Cn1cc(C(=O)N/N=C/c2cc(Cl)cc(Cl)c2O)c2ccccc21 [Compound 15]
other
  melting point: 215 to 217 °C
[1]
  inhibition of growth at 0.05 µg/mL: 16.3%
  LEPTNO % Inhn. Plus Copper Observed: 98.1%
Phytophthora infestans
  TLB % control: 12%

## CCn1nc(C)cc1C(=O)N/N=C/c1cc(Cl)cc(Cl)c1O [Compound 16]
other
  melting point: 221 to 222 °C
[1]
  inhibition of growth at 0.05 µg/mL: 3.5%
  LEPTNO % Inhn. Plus Copper Observed: 88%
Phytophthora infestans
  TLB % control: 39%

## O=C(N/N=C/c1cc(Cl)cc(Cl)c1O)c1cnn(-c2ccc(Cl)cc2)c1C(F)(F)F [Compound 17]
other
  melting point: 216 to 217 °C
[1]
  inhibition of growth at 0.05 µg/mL: 15.8%
  LEPTNO % Inhn. Plus Copper Observed: 92.6%
Phytophthora infestans
  TLB % control: 69%

## O=C(N/N=C/c1ccccc1)c1cnn(-c2ccc(Cl)cc2)c1C(F)(F)F [Compound 18]
other
  melting point: 205 to 207 °C
[1]
  inhibition of growth at 0.05 µg/mL: 0%
  LEPTNO % Inhn. Plus Copper Observed: 92.5%
Phytophthora infestans
  TLB % control: 7%

## O=C(N/N=C/c1ccccc1O)c1sc2ccccc2c1Cl [Compound 19]
[1]
  inhibition of growth at 0.05 µg/mL: 0%
  LEPTNO % Inhn. Plus Copper Observed: 92.1%
Phytophthora infestans
  TLB % control: 44%

## O=C(N/N=C/c1ccccc1O)c1cc2ccccc2s1 [Compound 20]
other
  melting point: 220 to 221 °C
[1]
  inhibition of growth at 0.05 µg/mL: 4.2%
  LEPTNO % Inhn. Plus Copper Observed: 95.4%
Phytophthora infestans
  TLB % control: 18%

## Cc1nn(-c2ccccc2)nc1C(=O)N/N=C/c1ccccc1O [Compound 21]
other
  melting point: 231 to 233 °C
[1]
  inhibition of growth at 0.05 µg/mL: 0%
  LEPTNO % Inhn. Plus Copper Observed: 93.9%
Phytophthora infestans
  TLB % control: 16%

## O=C(N/N=C/c1ccccc1O)c1snnc1-c1ccccc1 [Compound 22]
other
  melting point: 191 to 192 °C
[1]
  inhibition of growth at 0.05 µg/mL: 9.6%
  LEPTNO % Inhn. Plus Copper Observed: 77.9%
Phytophthora infestans
  TLB % control: 56%

## O=C(N/N=C/c1ccccc1O)c1ccc(Cl)s1 [Compound 23]
other
  melting point: 228 to 230 °C
[1]
  inhibition of growth at 0.05 µg/mL: 0%
  LEPTNO % Inhn. Plus Copper Observed: 96.3%
Phytophthora infestans
  TLB % control: 32%

## Cc1cc(C(=O)N/N=C/c2ccccc2O)cs1 [Compound 24]
other
  melting point: 180 to 182 °C
[1]
  inhibition of growth at 0.05 µg/mL: 2.9%
  LEPTNO % Inhn. Plus Copper Observed: 94.8%
Phytophthora infestans
  TLB % control: 56%

## Cc1nc(C)c(C(=O)N/N=C/c2cc(Cl)cc(Cl)c2O)s1 [Compound 25]
other
  melting point: 217 to 219 °C
[1]
  inhibition of growth at 0.05 µg/mL: 0%
  LEPTNO % Inhn. Plus Copper Observed: 81.9%
Phytophthora infestans
  TLB % control: 71%

## O=C(N/N=C/c1cc(Cl)cc(Cl)c1O)c1ccc(Cl)s1 [Compound 26]
other
  melting point: 248 to 250 °C
[1]
  inhibition of growth at 0.05 µg/mL: 2.7%
  LEPTNO % Inhn. Plus Copper Observed: 97.5%
Phytophthora infestans
  TLB % control: 92%

## Cc1cc(C(=O)N/N=C/c2cc(Cl)cc(Cl)c2O)cs1 [Compound 27]
other
  melting point: 189 to 191 °C
[1]
  inhibition of growth at 0.05 µg/mL: 5.4%
  LEPTNO % Inhn. Plus Copper Observed: 97.3%
Phytophthora infestans
  TLB % control: 78%

## O=C(N/N=C/c1cc(Cl)cc(Cl)c1O)c1ccsc1 [Compound 28]
other
  melting point: 315 to 318 °C
[1]
  inhibition of growth at 0.05 µg/mL: 4.4%
  LEPTNO % Inhn. Plus Copper Observed: 97.6%
Phytophthora infestans
  TLB % control: 80%

## O=C(N/N=C/c1cc(Br)cc(Br)c1O)c1cnn(-c2ccc(Cl)cc2)c1C(F)(F)F [Compound 29]
other
  melting point: 237 to 238 °C
[1]
  inhibition of growth at 0.05 µg/mL: 7.8%
  LEPTNO % Inhn. Plus Copper Observed: 57.6%
Phytophthora infestans
  TLB % control: 47%

## Cc1nc(C)c(C(=O)N/N=C/c2cc(Br)cc(Br)c2O)s1 [Compound 30]
other
  melting point: 225 to 226 °C
[1]
  inhibition of growth at 0.05 µg/mL: 1%
  LEPTNO % Inhn. Plus Copper Observed: 71.2%
Phytophthora infestans
  TLB % control: 49%

## O=C(N/N=C/c1cc(Br)cc(Br)c1O)c1ccc(Cl)s1 [Compound 31]
other
  melting point: 247 to 248 °C
[1]
  inhibition of growth at 0.05 µg/mL: 4.9%
  LEPTNO % Inhn. Plus Copper Observed: 97.8%
Phytophthora infestans
  TLB % control: 88%

## Cc1cc(C(=O)N/N=C/c2cc(Br)cc(Br)c2O)cs1 [Compound 32]
other
  melting point: 203 to 205 °C
[1]
  inhibition of growth at 0.05 µg/mL: 0%
  LEPTNO % Inhn. Plus Copper Observed: 97.6%
Phytophthora infestans
  TLB % control: 69%

## Cc1occc1C(=O)N/N=C/c1cc(Br)cc(Br)c1O [Compound 33]
other
  melting point: 270 to 272 °C
[1]
  inhibition of growth at 0.05 µg/mL: 9.1%
  LEPTNO % Inhn. Plus Copper Observed: 97.8%
Phytophthora infestans
  TLB % control: 66%

## O=C(N/N=C/c1cc(Br)cc(Br)c1O)c1ccsc1 [Compound 34]
other
  melting point: 236 to 237 °C
[1]
  inhibition of growth at 0.05 µg/mL: 0%
  LEPTNO % Inhn. Plus Copper Observed: 97.9%
Phytophthora infestans
  TLB % control: 80%

## C/C(=N\NC(=O)c1cnn(-c2ccc(Cl)cc2)c1C(F)(F)F)c1ccccc1O [Compound 35]
other
  melting point: 201 to 202 °C
[1]
  inhibition of growth at 0.05 µg/mL: 4.3%
  LEPTNO % Inhn. Plus Copper Observed: 94.8%
Phytophthora infestans
  TLB % control: 59%

## C/C(=N\NC(=O)c1cn(-c2ccccc2)nc1O)c1ccccc1O [Compound 36]
other
  melting point: 276 to 277 °C
[1]
  inhibition of growth at 0.05 µg/mL: 9.2%
  LEPTNO % Inhn. Plus Copper Observed: 92.5%
Phytophthora infestans
  TLB % control: 66%

## C/C(=N\NC(=O)c1sc(C)nc1C)c1ccccc1O [Compound 37]
other
  melting point: 202 to 204 °C
[1]
  inhibition of growth at 0.05 µg/mL: 0%
  LEPTNO % Inhn. Plus Copper Observed: 94.2%
Phytophthora infestans
  TLB % control: 81%

## C/C(=N\NC(=O)c1ccc(Cl)s1)c1ccccc1O [Compound 38]
other
  melting point: 204 to 205 °C
[1]
  inhibition of growth at 0.05 µg/mL: 0%
  LEPTNO % Inhn. Plus Copper Observed: 98%
Phytophthora infestans
  TLB % control: 56%

## C/C(=N\NC(=O)c1csc(C)c1)c1ccccc1O [Compound 39]
other
  melting point: 158 to 160 °C
[1]
  inhibition of growth at 0.05 µg/mL: 0%
  LEPTNO % Inhn. Plus Copper Observed: 97.3%
Phytophthora infestans
  TLB % control: 66%

## C/C(=N\NC(=O)c1ccsc1)c1ccccc1O [Compound 40]
other
  melting point: 148 to 150 °C
[1]
  inhibition of growth at 0.05 µg/mL: 0%
  LEPTNO % Inhn. Plus Copper Observed: 96.8%
Phytophthora infestans
  TLB % control: 80%

## O.O.[Cl][Cu][Cl] [CuCl2, CuCl2.2H2O, reference compound]
[1]; CuCl2 10 μM, no test compound, copper-plus vs copper-minus medium across experiments
  LEPTNO % inhibition attributed to copper chloride alone: 9.3 ± 1.6%
